Experiment [1] has as its target T1, NS3 genotype 3a protease (UniProt Q81258).
T1 construct: Purified NS3 protease domain (amino acids 1-181) of the genotype 1b and 3a virus were generated as above; fused on or other part: N-terminal hexahistidine tag with an rTEV protease cleavage site (vector p28-N6H-Tev-NS3(181)3)
T1 sequence (Q81258 1033-1663): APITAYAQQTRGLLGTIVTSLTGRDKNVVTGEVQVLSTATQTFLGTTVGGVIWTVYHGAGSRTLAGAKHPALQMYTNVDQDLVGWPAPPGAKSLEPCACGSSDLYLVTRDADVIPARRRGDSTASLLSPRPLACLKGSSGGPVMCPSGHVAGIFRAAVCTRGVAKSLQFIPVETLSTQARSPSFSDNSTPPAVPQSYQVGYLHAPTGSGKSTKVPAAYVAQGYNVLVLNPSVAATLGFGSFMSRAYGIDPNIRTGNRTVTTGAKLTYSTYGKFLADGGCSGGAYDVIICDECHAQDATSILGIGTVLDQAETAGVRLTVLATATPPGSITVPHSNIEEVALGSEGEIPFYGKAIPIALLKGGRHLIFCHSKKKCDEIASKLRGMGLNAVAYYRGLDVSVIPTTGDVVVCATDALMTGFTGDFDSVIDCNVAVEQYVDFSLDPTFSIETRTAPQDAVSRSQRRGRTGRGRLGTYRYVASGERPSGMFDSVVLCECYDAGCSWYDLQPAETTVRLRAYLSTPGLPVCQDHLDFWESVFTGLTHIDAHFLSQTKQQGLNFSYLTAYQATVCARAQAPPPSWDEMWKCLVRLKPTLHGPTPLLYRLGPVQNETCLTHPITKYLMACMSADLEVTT
Briefly: Ki determination, NS3 protease genotype 3a (fluorogenic depsipeptide substrate). The format is biochemical, hepatitis C virus. As to conditions: NS3 protease domain genotype 3a, NS4A peptide. The source says: Ki Determination for Genotypes 1b and 3a NS3 Protease.
Purified NS3 protease domain (amino acids 1-181) of the genotype 1b and 3a virus were generated as above. The internally quenched fluorogenic depsipeptide substrate Ac-DED(Edans)-EEAbuψ[COO]ASK(Dabcyl)-NH2 and a synthetic peptide containing the hydrophobic core residues of the NS4A protein cofactor ([…]; NS4A peptide) were obtained from Anaspec, Inc. (San Jose, Calif.). Other chemicals and biochemicals were of reagent grade or better and were purchased from standard suppliers.
Reactions were run at room temperature in buffer consisting of 50 mM HEPES, 40% glycerol, 0.05% Triton X-100, 10 mM DTT, and 10% DMSO. The final assay solutions contained 50 pM NS3 genotype 1b protease or 200 pM genotype 3a protease, 20 μM NS4A peptide, and 4 μM substrate (genotype 1b) or 2 μM substrate (genotype 3a). Inhibitor concentrations varied from 100 nM to 5 pM in 3-fold dilutions, and no-inhibitor controls were included.
Compound dilutions were made in DMSO at 20× final concentration. Reaction mixtures were prepared in 96-well assay plates. A solution of enzyme and NS4A peptide in assay buffer (25 μL volume with both reagents at 4× final concentration) was mixed with 45 μL assay buffer and 5 μL of either inhibitor or DMSO, and pre-incubated at room temperature for 1 hour. The reaction was started by addition of 25 μL substrate solution at 4× final concentration. Plates were mixed vigorously for 5-10 seconds and reactions were allowed to proceed for 90 minutes. Fluorescence was measured every 30 s between 90 and 120 minutes reaction time using a Tecan InfiniTe M1000 or PerkinElmer Envision multimode plate reader with an excitation wavelength of 340 nm and an emission wavelength of 490 nm.
Rates were calculated from the progress curves at steady state, in the time frame of 90-120 minutes after addition of substrate. To determine the Ki, rates were plotted as a function of inhibitor concentration, and the data were fit with equation 1 (Morrison, J. F., Biochimica et Biophysica Acta 1969, 185, 269-286) to calculate Ki^app using GraphPad Prism 5. Active fraction of enzyme was determined by active site titration with known potent inhibitors. Ki was calculated from Ki^app/(1+[[S]/Km]).

For experiment [2], the system named is genotype 2a stable HCV replicon (JFH-1) in Huh-7-derived cells. Briefly: Stable subgenomic HCV replicon, genotype 2a, Renilla luciferase. The format is cell-based. Conditions: Hepatitis C virus, stable replicon genotype 2a, 72 h, read-out: EC50 2A RLUC. As to the method:
Antiviral potency (EC50) was determined in both stable subgenomic HCV replicon cell lines and transient-transfected HCV replicon cells. The term half maximal effective concentration (EC50) refers to the concentration of a drug which induces a response halfway between the baseline and maximum after the exposure time specified below.
Stable subgenomic HCV replicons for genotype 1a, 1b, 2a, 3a, and 4a were established in Huh-7-derived cells as described by Lohmann et al (Lohmann V, Korner F, Koch J, et al Replication of subgenomic hepatitis C virus RNAs in a hepatoma cell line. Science 1999; 285:119-3). Each stable cell line contains a bicistronic HCV replicon that encodes a humanized Renilla luciferase (hRLuc) reporter gene fused to a selectable neomycin-resistance gene, followed by an EMCV IRES and the NS3-NS5B coding region of HCV. […] Luciferase activity was measured as a marker for intracellular HCV replication levels.
The genotype 1a stable replicon was derived from the H77 HCV strain and contained adaptive mutations P1496L and S2204I. The genotype 1b stable replicon was derived from the Con1 HCV strain and contained adaptive mutations E1202G, T1280I, and K1846T. […] The genotype 3a stable replicon was derived from the S52 HCV strain and contained adaptive mutations P1121 L, A1198T and S2210I (equivalent to S2204I in genotype 1). The genotype 4a stable replicon was derived from the ED43 HCV strain and contained adaptive mutations Q1691R and S2204I. All replicon cell lines were propagated in Huh-7-derived cells and maintained in Dulbecco's modified Eagle's Medium (DMEM) supplemented with 10% fetal bovine serum (FBS) and 0.5 mg/ml G418.
To perform EC50 assays, cells from each HCV replicon were dispensed into 384-well plates. Compounds were dissolved in DMSO at a concentration of 10 mM and diluted in DMSO using an automated pipetting instrument. Three-fold serially diluted compounds were directly added to the cells using an automated instrument. DMSO was used as a negative (solvent; no inhibition) control, and a combination of three HCV inhibitors including a protease inhibitor; an NS5A inhibitor and a nucleoside inhibitor was used at concentrations >100×EC50 as a positive control (100% inhibition). Seventy-two hours later, cells were lysed and Renilla luciferase activity were quantified as recommended by the manufacturer (Promega-Madison, Wis.). Non-linear regression was performed to calculate […], values.
In general terms: A replicon is a self-replicating genome or part of one, used to study replication in cells.

Experiment [3] relates to genotype 1a (H77) wild-type transient HCV replicon in Huh-7-derived cells. The experiment is described as follows: Transient-transfected HCV replicon, genotype 1a wild type. It is filed as cell-based. As to conditions: Hepatitis C virus; transient-transfected replicon genotype 1a wild type, 72 h; read-out: EC50 1A WT.
For experiment [4], the system named is NS3/4a protease inhibitor resistant variant D168A in genotype 1b transient HCV replicon. The experiment is described as follows: Transient-transfected HCV replicon, genotype 1b D168A. It is filed as cell-based. As to conditions: Hepatitis C virus, 72 h, read-out: EC50 1B D168A.

The results in this text go back to patent US9617310B2 (priority 2013, dated 2017).

A word on the Ki: it is a measure of affinity in units of concentration, obtained from inhibition or displacement. Low values mean tighter binding, high ones weaker binding. In general, EC50 refers to the concentration at which the effect is half-maximal.

Consider `COc1ccc2nc3c(nc2c1)O[C@@H]1C[C@@H](C(=O)N[C@]2(C(=O)NS(=O)(=O)C4(C)CC4)C[C@H]2C(F)F)N(C1)C(=O)[C@H](C(C)(C)C)NC(=O)O[C@@H]1[C@H]2CC[C@H](C2)[C@H]1CCCCC3` [Example 5, (1R,4S,4aR,8S,11S,13R,25aR)-8-tert-butyl-N-[(1R,2R)-2-(difluoromethyl)-1-{[(1-methylcyclopropyl)sulfonyl]carbamoyl}cyclopropyl]-17-methoxy-6,9-dioxo-2,3,4,4a,6,7,8,9,12,13,21,22,23,24,25,25a-hexadecahydro-1H,11H-1, 4:10,13-dimethanoquinoxalino[2,3-k][1,10,3,6]benzodioxadiazacyclononadecine-11-carboxamide], for which the affinity in experiment [1] corresponds to a Ki of 0.27 nM. The EC50 came to 14 nM in experiment [2], 4.2 nM in experiment [3] and 161 nM in experiment [4].
For `COc1ccc2nc3c(nc2c1)O[C@@H]1C[C@@H](C(=O)N[C@]2(C(=O)NS(=O)(=O)C4CC4)C[C@H]2C(F)F)N(C1)C(=O)[C@H](C(C)(C)C)NC(=O)O[C@H]1[C@H](CCCCC3)C[C@H]2C[C@H]21` [Example 7, (1aR,1bS,5S,8S,10R,22aR,23aR)-5-tert-butyl-N-[(1R,2R)-1-[(cyclopropylsulfonyl)carbamoyl]-2-(difluoromethyl)cyclopropyl]-14-methoxy-3,6-dioxo-1a,1b,3,4,5,6,9,10,18,19,20,21,22,22a,23,23a-hexadecahydro-1H,8H-7,10-methanocyclopropa[3′,40]cyclopenta[1′,2′:18,19][1,10,3,6]dioxadiazacyclononadecino[11,12-b]quinoxaline-8-carboxamide], affinity in experiment [1] was put at a Ki of 9.5 nM. Also, the EC50 in experiment [2] worked out at 199 nM; in experiment [3], 72 nM; in experiment [4] it was 1070 nM.
The corresponding values for `COc1ccc2nc3c(nc2c1)O[C@@H]1C[C@@H](C(=O)N[C@]2(C(=O)NS(=O)(=O)C4(C)CC4)C[C@H]2C(F)F)N(C1)C(=O)[C@H](C(C)(C)C)NC(=O)O[C@H]1[C@H](CCCCC3)C[C@H]2C[C@H]21` [Example 8, (1aR,1bS,5S,8S,10R,22aR,23aR)-5-tert-butyl-N-[(1R,2R)-2-(difluoromethyl)-1-{[(1-methylcyclopropyl)sulfonyl]carbamoyl}cyclopropyl]-14-methoxy-3,6-dioxo-1a,1b,3,4,5,6,9,10,18,19,20,21,22,22a, 23,23a-hexadecahydro-1H,8H-7,10-methanocyclopropa[3′,4′]cyclopenta [1′,2′:18,19][1,10,3,6]dioxadiazacyclononadecino[11,12-b]quinoxaline-8-carboxamide] are 8.5 nM, 110 nM, 72 nM and 712 nM.
In turn, `COc1ccc2nc3c(nc2c1)O[C@@H]1C[C@@H](C(=O)N[C@]2(C(=O)NS(=O)(=O)C4(C)CC4)C[C@H]2C(F)F)N(C1)C(=O)[C@H](C(C)(C)C)NC(=O)O[C@@H]1C[C@@H]2C[C@@H]2[C@H]1CCCCC3(F)F` [Example 10, (1aS,2aR,6S,9S,11R,23aR,23bS)-6-tert-butyl-N-[(1R,2R)-2-(difluoromethyl)-1-{[(1-methylcyclopropyl)sulfonyl]carbamoyl}cyclopropyl]-19,19-difluoro-15-methoxy-4,7-dioxo-1a,2,2a,4,5,6,7,10,11,19,20,21,22,23,23a,23b-hexadecahydro-1H,9H-8,11-methanocyclopropa [4′,5′]cyclopenta[1′,2′:18,19][1,10,3,6]dioxadiazacyclononadecino[11,12-b]quinoxaline-9-carboxamide] showed a Ki in experiment [1] of 0.02 nM. Moreover, the EC50 in experiment [2] came to 1.6 nM; in experiment [3] it was 1.4 nM; in experiment [4], 1 nM.
`CC(C)(C)[C@@H]1NC(=O)O[C@@H]2C[C@@H]3C[C@@H]3[C@H]2CCCCCc2nc3ccc(F)cc3nc2O[C@@H]2C[C@@H](C(=O)N[C@]3(C(=O)NS(=O)(=O)C4(C)CC4)C[C@H]3C(F)F)N(C2)C1=O` [Example 11, (1aS,2aR,6S,9S,11R,23aR,23bS)-6-tert-butyl-N-[(1R,2R)-2-(difluoromethyl)-1-{[(1-methylcyclopropyl)sulfonyl]carbamoyl}cyclopropyl]-15-fluoro-4,7-dioxo-1a,2,2a,4,5,6,7,10,11,19,20,21,22,23,23a,23b-hexadecahydro-1H,9H-8,11-methanocyclopropa[4′,5′]cyclopenta[1′,2′:18,19][1,10,3,6]dioxadiazacyclononadecino[11,12-b]quinoxaline-9-carboxamide] registered a Ki in experiment [1] of 0.09 nM. For the same compound, the figures for the EC50 in experiment [2], in experiment [3] and in experiment [4] were 2 nM, 1.4 nM and 8.6 nM, respectively.
The corresponding values for `CC(C)(C)[C@@H]1NC(=O)O[C@@H]2C[C@@H]3C[C@@H]3[C@H]2CCCCCc2nc3ccc(F)cc3nc2O[C@@H]2C[C@@H](C(=O)N[C@]3(C(=O)NS(=O)(=O)C4CC4)C[C@H]3C(F)F)N(C2)C1=O` [Example 12, (1aS,2aR,6S,9S,11R,23aR,23bS)-6-tert-butyl-N-[(1R,2R)-1-[(cyclopropylsulfonyl)carbamoyl]-2-(difluoromethyl)cyclopropyl]-15-fluoro-4,7-dioxo-1a,2,2a,4,5,6,7,10,11,19,20,21,22,23,23a,23b-hexadecahydro-1H,9H-8,11-methanocyclopropa[4′,5′]cyclopenta[1′,2′:18,19][1,10,3,6]dioxadiazacyclononadecino[11,12-b]quinoxaline-9-carboxamide] are 0.09 nM, 2.6 nM, 0.8 nM and 15.6 nM.
